# Values quoted from earlier work, collected in patent publication US9889109B2, “Pharmaceutical composition comprising benzyl alcohol for the treatment of migraines” (St. Renatus, LLC, priority 2012, dated 2018).
compound,measurement,setting,value
"CCCCNc1ccc(C(=O)OCCN(C)C)cc1 [tetracaine, 2-(dimethylamino)ethyl 4-(butylamino)benzoate]",pKa,,approximately 8.4
same,unionized molecules,pH 7.4,1-2%
